Laboratory results taken from patent publication US20220280507A1, “USES OF 5-METHYLTETRAHYDROFOLATE AND ITS COMPOSITION” (Lianyungang Jinkang Hexin Pharmaceutical Co., Ltd., priority 2019, published 2022).
Where two headings read alike, the source gives them in different places.

Experiments:
hyperlipemia rats = experiment: Hyperlipemia rats (high-fat diet), biochemical indexes TG, TC, SOD, MDA; format: in vivo, SD rats
Procedure: Experiment 5 Effect of 5-Methyltetrahydrofolate Calcium on Hyperlipemia Rats
7 weeks later, one rat in the control group and one rat in the model group were sacrificed for liver tissue section to check fatty degeneration of hepatocytes (see Table 7) to confirm whether modeling was successful. The remaining 40 modeling rats were randomly divided into low-dose (1 mg·Kg−1) group, medium-dose (2 mg·Kg−1) group, high-dose (4 mg·Kg−1) group, positive drug group, and model group.
Bicyclol (place of origin: Beijing Xiehe Pharmaceutical Factory, specification: 25 mg/tablet, batch number: H20040467) was used as a positive drug.
After successful modeling, rats were administered drugs with dosages as prescribed for 60 consecutive days, continued to be fed with high-fat diet, and dissected on the 61st day. Liver was harvested and weighed, liver index was calculated, right lobe tissue was taken to prepare frozen sections, and fat staining was performed with Sudan III for pathological scoring according to guidelines for diagnosis and treatment of NAFLD. Another liver tissue was taken to prepare homogenate, and total cholesterol (TC), triglyceride (TG), malondialdehyde (MDA), and superoxide dismutase (SOD) in serum were detected.

mice after drinking = conditions: n=10
Procedure: Experiment 8 Tail Suspension Test and Swimming Test in Mice after Drinking
Clean-grade male Kunming mice, weighing 18-22 g, were chosen. The test was carried out at 23° C. with a humidity of 50%. The mice ate and drank freely, adapting to the environment for 5 days before the test. Then they were divided into 5 groups: model group, normal group, high-dose 5-MTHF-Ca group, medium-dose 5-MTHF-Ca group and low-dose 5-MTHF-Ca group (16 mg·Kg−1, 8mg·Kg−1, 4mg·Kg−1),
10 mice in each group. The model group was given (by gavage) Erguotou (batch number: 201603092, specification: 2L, place of origin: Beijing Shunxin Agriculture Co., Ltd.) at 18 ml·Kg−1, and calcium folate (Lianyungang Jinkang Hexin Pharmaceutical Co., Ltd.). The high-dose, medium-dose and low-dose groups were also given the solution containing Erguotou and calcium folate. The mice were tested after 24 h. The tail suspension test is carried out by fixing the tail of a mouse so that it is suspended head down in a state of desperately struggling to escape but unable to escape. After a period of time, record the immobility time of the mouse in a desperate state in this environment to observe the therapeutic effect after administration. The head of the mouse suspended upside down was 10 cm from the bottom of the box, and two mice were suspended at a time, which were separated by a partition to avoid collision. The mice were suspended for 10 min, and the accumulated immobility time of the suspended mice was counted within the latter 5 min.

alcohol drinking rats = experiment: Disappearance and recovery of righting reflex of alcohol drinking rats; format: in vivo, SD rats; conditions: 30 min before Erguotou 9 ml·Kg−1, n=6
Procedure: Experiment 1 Effect of 5-methyltetrahydrofolate on disappearance and recovery of righting reflex of alcohol drinking rats.
30 SPF-grade SD rats were chosen in half male and half female, and divided into 5 groups with 6 rats in each group, including normal group, model group, positive drug group (Weihe Liver Protectant), 5-methyltetrahydrofolate administration group (4 mg·Kg−1 medium dose group, 8 mg·Kg−1 high dose group, respectively). After fasting for 12 h, the administration group was given Weihe Liver Protectant at 50 mg·kg−1, 5-methyltetrahydrofolate (Jinkang Hexin product) at 4 mg·Kg−1, 5-methyltetrahydrofolate (Jinkang Hexin product) at 8 mg·Kg−1, respectively. […] The intoxication in rats depends on righting reflex disappearing, that is, cover the head of the rat with gauze, and gently place the rat back down in the animal cage. […] The disappearance time and recovery time of the righting reflex in rats after drinking were recorded.

brain tissue of rats = conditions: n=5
Procedure: Experiment 11 Effects of Drinking and 5-Methyltetrahydrofolate on the Concentrations of Formaldehyde and Formate in the Brain of Rats
The concentrations of formaldehyde and formate, as well as those of serotonin and dopamine in brain tissue of rats were detected at this time. SPF-grade female SD rats, fasted overnight, were divided into 4 groups.
(1) Ethanol group, with intragastric administration of ethanol at a dose of 1 g/kg respectively at 1, 2, 3 h, n=5; (2) control group, with intragastric administration of glucose at a dose of 1.6 g/kg (equivalent to alcohol calories) respectively at 1, 2, and 3 h, n=5; (3) 5-methyltetrahydrofolate group, with intragastric administration of 5-methyltetrahydrofolate calcium at a dose of 4 mg/kg at 0 h, followed by glucose at a dose of 1.6 g/kg (equivalent to alcohol calories) respectively at 1, 2, and 3 h, n=5; (4) 5-methyltetrahydrofolate alcohol group, with intragastric administration of 5-methyltetrahydrofolate calcium at a dose of 4 mg/kg at 0 h, followed by ethanol at a dose of 1 g/kg respectively at 1, 2, and 3 h, n=5.
Gas chromatography was used to detect methanol and ethanol concentrations in blood of rats, and HPLC was used to detect formaldehyde concentration in brain tissue. 0.1 g of brain tissue was taken and 0.5 ml of SDN lysate was added to make homogenate, then 0.5 ml of trifluoroacetic acid was added. The sample was centrifuged at 4° C., 0.4 ml of supernatant was collected, 0.1 ml DNPH (1 g/L) was added, mixed and incubated in 60° C. water bath for 30 min, centrifuged at 4° C., and supernatant was collected to detect formaldehyde concentration. Fluorescence spectrometry was used to detect formate concentration in brain. Serotonin and dopamine enzyme-linked immunosorbent reagent was used to detect neurotransmitters in brain in strict accordance with the instructions.

[1] = 5-methyltetrahydrofolate calcium 4 mg/kg ig at 0 h + ethanol 1 g/kg at 1, 2, 3 h, 24 h after drinking
[2] = 5-methyltetrahydrofolate calcium 4 mg/kg ig at 0 h + glucose 1.6 g/kg at 1, 2, 3 h, 24 h

For 5-methyltetrahydrofolate calcium, the MDA (hyperlipemia rats; 1 mg·kg−1·d−1, 60 d) was 45.20 ± 8.17 nmol/mgprot, the SOD (hyperlipemia rats; 1 mg·kg−1·d−1, 60 d) was 234.20 ± 21.36 U/mgprot and the TC (hyperlipemia rats; 1 mg·kg−1·d−1, 60 d) was 1.45 ± 0.38 mmol/L. The TG (hyperlipemia rats; 1 mg·kg−1·d−1, 60 d) was 1.07 ± 0.33 mmol/L, the MDA (hyperlipemia rats; 2 mg·kg−1·d−1, 60 d) was 42.26 ± 9.35 nmol/mgprot and the SOD (hyperlipemia rats; 2 mg·kg−1·d−1, 60 d) was 257.41 ± 30.29 U/mgprot. The TC (hyperlipemia rats; 2 mg·kg−1·d−1, 60 d) was 1.57 ± 0.36 mmol/L, the TG (hyperlipemia rats; 2 mg·kg−1·d−1, 60 d) was 1.03 ± 0.55 mmol/L and the MDA (hyperlipemia rats; 4 mg·kg−1·d−1, 60 d) was 40.98 ± 11.37 nmol/mgprot. It also gave an SOD (hyperlipemia rats; 4 mg·kg−1·d−1, 60 d) of 260.97 ± 30.04 U/mgprot, a TC (hyperlipemia rats; 4 mg·kg−1·d−1, 60 d) of 1.50 ± 0.34 mmol/L and a TG (hyperlipemia rats; 4 mg·kg−1·d−1, 60 d) of 1.05 ± 0.63 mmol/L. For the same compound, the Suspension immobility time (mice after drinking; high dose 16 mg·Kg−1 with Erguotou 18 ml·Kg−1, tested after 24 h) was 63.53 ± 2.98 S, the Suspension immobility time (mice after drinking; low dose 4 mg·Kg−1 with Erguotou 18 ml·Kg−1, tested after 24 h) was 72.42 ± 4.52 S and the Suspension immobility time (mice after drinking; medium dose 8 mg·Kg−1 with Erguotou 18 ml·Kg−1, tested after 24 h) was 68.32 ± 3.46 S.

`CN1c2c([nH]c(N)nc2=O)NCC1CNc1ccc(C(=O)N[C@@H](CCC(=O)O)C(=O)O)cc1` (stereo partly drawn) [5-methyltetrahydrofolate, N-[4-[[(2-amino-1,4,5,6,7,8-hexahydro-4-oxo-5-methyl-(6S), -(6R), and (6R,S)-pteridyl)methyl)amino)toluoyl-glutamic acid] was tested, and the “Disappearance time (righting reflex)” value (alcohol drinking rats; 4 mg·Kg−1 (medium)) was 30.1 ± 14.4 min, the “Recovery time (righting reflex)” value (alcohol drinking rats; 4 mg·Kg−1 (medium)) was 78.5 ± 14.5 min and the “Disappearance time (righting reflex)” value (alcohol drinking rats; 8 mg·Kg−1 (high)) was 42.3 ± 15.6 min. For the same compound, the “Recovery time (righting reflex)” value (alcohol drinking rats; 8 mg·Kg−1 (high)) was 64.1 ± 14.5 min, the “5-hydroxytryptamine in brain tissue” value (brain tissue of rats; [1]) was 0.10 ± 0.1 µg/L and the “Dopamine in brain tissue” value (brain tissue of rats; [1]) was 27 ± 4 ng/L. The “Formaldehyde in brain tissue” value (brain tissue of rats; [1]) was 1.14 ± 0.31 mg/L, the “Formate in brain tissue” value (brain tissue of rats; [1]) was 5.5 ± 0.4 mg/L and the “5-hydroxytryptamine in brain tissue” value (brain tissue of rats; [2]) was 0.12 ± 0.04 µg/L. The “Dopamine in brain tissue” value (brain tissue of rats; [2]) was 35 ± 3 ng/L, the “Formaldehyde in brain tissue” value (brain tissue of rats; [2]) was 0.39 ± 0.11 mg/L and the “Formate in brain tissue” value (brain tissue of rats; [2]) was 2.1 ± 0.2 mg/L.
